Broadly, the EC50 is the concentration that produces a half-maximal response.

This is an account of results in US11261186B2, “Biaryl derivative as GPR120 agonist” (LG CHEM, LTD., priority 2014, dated 2022).

This experiment concerns the target T1, hGPR120 (Homo sapiens, UniProt Q5NUL3).
T1 construct: expressed in transfected cells; host or cells: CHO-K1
T1 sequence (Q5NUL3 1-361): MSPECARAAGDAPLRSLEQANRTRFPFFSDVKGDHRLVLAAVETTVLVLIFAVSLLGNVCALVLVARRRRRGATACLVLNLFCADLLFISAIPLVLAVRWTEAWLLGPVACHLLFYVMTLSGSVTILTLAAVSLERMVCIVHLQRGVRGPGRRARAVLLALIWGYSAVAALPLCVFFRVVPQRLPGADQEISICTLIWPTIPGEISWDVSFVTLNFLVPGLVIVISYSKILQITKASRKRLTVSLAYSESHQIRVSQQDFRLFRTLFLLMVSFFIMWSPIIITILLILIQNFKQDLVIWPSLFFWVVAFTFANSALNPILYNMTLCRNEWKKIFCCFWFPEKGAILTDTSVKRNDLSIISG
Kind of experiment: Measurement of Activity of GPR120 Agonist (Cell-Based Assay), Calcium 5 dye fluorescence. Particulars: CHO-K1 cells expressing Ga16 and hGPR120. In short, it runs like this:
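CHO-K1 cells co-expressing Gα16 and hGPR120, plated 18 h, loaded 1 h at 37°C with Calcium 5 dye. Serially diluted agonists added at 0.5% DMSO final; fluorescence read at Ex 485/Em 525 nm and expressed as relative % of DMSO-only signal.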
For the compound `O=C(O)CCC1CCc2cc(-c3cccnc3SC3CCCC3)ccc2S1` (stereo not drawn) [Example 281, 3-[6-(2-cyclopentylsulfanyl-pyridin-3-yl)-thiochroman-2-yl]-propionic acid], the half-maximal effective concentration (EC50) is under 200 nM.

On to `CC1(C)Cc2cc(Cl)cc(-c3ccc4c(c3)CCC(CCC(=O)O)S4)c2O1` (stereo not drawn) [Example 282, 3-[6-(5-chloro-2,2-dimethyl-2,3-dihydro-benzofuran-7-yl)-thiochroman-2-yl]-propionic acid], for which the EC50 was 200 to 2000 nM.

On to `O=C(O)CCC1CCc2cc(-c3cccc4c3OC3(CCCC3)C4)ccc2S1` (stereo not drawn) [Example 283, 3-(6-spiro[3H-benzofuran-2,1′-cyclopentan]-7-yl-thiochroman-2-yl)-propionic acid], for which the EC50 lay within 200 to 2000 nM.

Take `O=C(O)CCC1CCc2cc(-c3cccnc3OC3CCOCC3)ccc2S1` (stereo not drawn) [Example 284, 3-{6-[2-(tetrahydro-pyran-4-yloxy)-pyridin-3-yl]-thiochroman-2-yl}-propionic acid]: the EC50 fell in the range of 200 to 2000 nM.

On to `COc1ccc(-c2cc(F)c(N3CC(CC(=O)O)C3)c(F)c2)c2c1OC(C)(C)C2` [Example 285, {1-[2,6-difluoro-4-(7-methoxy-2,2-dimethyl-2,3-dihydro-benzofuran-4-yl)-phenyl]-azetidin-3-yl}-acetic acid], for which the EC50 was in the range of 2000 to 20000 nM.

Take `CC(C)Sc1cccc(-c2ccc3c(c2)CCC(CCC(=O)O)S3)n1` (stereo not drawn) [Example 286, 3-[6-(6-isopropylsulfanyl-pyridin-2-yl)-thiochroman-2-yl]-propionic acid]: the EC50 is under 200 nM.

For the compound `O=C(O)CCCOc1c(F)cc(-c2cccc3c2OC2(CCCC2)O3)cc1F` [Example 287, 4-(2,6-difluoro-4-spiro[1,3-benzodioxol-2,1′-cyclopentan]-4-yl-phenoxy)butanoic acid], the EC50 was under 200 nM.

`O=C(O)CCCOc1ccc(-c2cccc3c2OC2(CCCC2)O3)cc1` [Example 288, 4-(4-spiro[1,3-benzodioxol-2,1′-cyclopentan]-4-ylphenoxy)butanoic acid]: the EC50 was under 200 nM.

Turning to `O=C(O)CCCOc1ccc(-c2cccc3c2OC2(CCCC2)O3)cc1F` [Example 289, 4-(2-fluoro-4-spiro[1,3-benzodioxol-2,1′-cyclopentan]-4-yl-phenoxy)butanoic acid], the EC50 was in the range of 200 to 2000 nM.

`O=C(O)CCCOc1c(F)cc(-c2cccc3c2OC(F)(F)O3)cc1F` [Example 290, 4-[4-(2,2-difluoro-benzo[1,3]dioxol-4-yl)-2,6-difluoro-phenoxy]-butyric acid]: the concentration for a half-maximal effect (EC50) is under 200 nM.

`CC1(C)Cc2c(cccc2-c2cc(F)c(OCCCC(=O)O)c(F)c2)O1` [Example 291, 4-[4-(2,2-dimethyl-2,3-dihydro-benzofuran-4-yl)-2,6-difluoro-phenoxy]-butyric acid]: the EC50 is under 200 nM.

Regarding `O=C(O)CCCOc1c(F)cc(-c2cccnc2SC2CCCCC2)cc1F` [Example 292, 4-[4-(2-cyclohexylsulfanyl-pyridin-3-yl)-2,6-difluoro-phenoxy]-butyric acid], the EC50 lay within 2000 to 20000 nM.

Take `O=C(O)CCSCc1ccc(-c2cccnc2OC2CCCC2)cc1` [Example 293, 3-[4-(2-cyclopentyloxy-pyridin-3-yl)-benzylsulfanyl]-propionic acid]: the EC50 was in the range of 200 to 2000 nM.

Turning to `O=C(O)CC1CCN(c2c(F)cc(-c3cccc(OC4CCC4)n3)cc2F)CC1` [Example 294, 2-[1-[4-[6-(cyclobutoxy)-2-pyridyl]-2,6-difluoro-phenyl]-4-piperidyl]acetic acid], the EC50 was under 200 nM.

As to `CCCOc1cccc(-c2cc(F)c(N3CCC(CC(=O)O)CC3)c(F)c2)n1` [Example 295, 2-[1-[2,6-difluoro-4-(6-propoxy-2-pyridyl)phenyl]-4-piperidyl]acetic acid], the EC50 was under 200 nM.

Take `CC(C)Oc1cccc(-c2cc(F)c(N3CCC(CC(=O)O)CC3)c(F)c2)n1` [Example 296, 2-[1-[2,6-difluoro-4-(6-isopropoxy-2-pyridyl)phenyl]-4-piperidyl]acetic acid]: the EC50 is under 200 nM.

On to `O=C(O)CC1CCN(c2c(F)cc(-c3cccc(SC4CCC4)n3)cc2F)CC1` [Example 297, 2-[1-[4-(6-cyclobutylsulfanyl-2-pyridyl)-2,6-difluoro-phenyl]-4-piperidyl]acetic acid], for which the half-maximal effective concentration (EC50) was 200 to 2000 nM.

Consider `CCCSc1cccc(-c2cc(F)c(N3CCC(CC(=O)O)CC3)c(F)c2)n1` [Example 298, 2-[1-[2,6-difluoro-4-(6-propylsulfanyl-2-pyridyl)phenyl]-4-piperidyl]acetic acid], for which the EC50 fell in the range of 200 to 2000 nM.

In the case of `O=C(O)CC1CCN(c2c(F)cc(-c3cccc(OC4CCCC4)n3)cc2F)CC1` [Example 299, 2-[1-[4-[6-(cyclopentoxy)-2-pyridyl]-2,6-difluoro-phenyl]-4-piperidyl]acetic acid], the EC50 lay in the range of 200 to 2000 nM.

As for `O=C(O)CC1CCN(c2c(F)cc(-c3cccc(OC4CCC4)c3)cc2F)CC1` [Example 300, 2-[1-[4-[3-(cyclobutoxy)phenyl]-2,6-difluoro-phenyl]-4-piperidyl]acetic acid], the EC50 fell in the range of 200 to 2000 nM.

With `O=C(O)CC1CCN(c2c(F)cc(-c3cccc(OCC4CC4)c3)cc2F)CC1` [Example 301, 2-[1-[4-[3-(cyclopropylmethoxy)phenyl]-2,6-difluoro-phenyl]-4-piperidyl]acetic acid], the EC50 was 200 to 2000 nM.

As for `CC(C)OCc1cccc(-c2cc(F)c(N3CCC(CC(=O)O)CC3)c(F)c2)c1` [Example 302, 2-[1-[2,6-difluoro-4-[3-(isopropoxymethyl)phenyl]phenyl]-4-piperidyl]acetic acid], the EC50 lay in the range of 200 to 2000 nM.

In the case of `CCOCc1cccc(-c2cc(F)c(N3CCC(CC(=O)O)CC3)c(F)c2)c1` [Example 303, 2-[1-[4-[3-(ethoxymethyl)phenyl]-2,6-difluoro-phenyl]-4-piperidyl]acetic acid], the EC50 fell in the range of 200 to 2000 nM.

As for `O=C(O)CC1CCN(c2c(F)cc(-c3ccc(F)c(OC4CCC4)c3)cc2F)CC1` [Example 304, 2-[1-[4-[3-(cyclobutoxy)-4-fluoro-phenyl]-2,6-difluoro-phenyl]-4-piperidyl]acetic acid], the EC50 lay within 200 to 2000 nM.

Turning to `COc1ccc(-c2cc(F)c(N3CCC(CC(=O)O)CC3)c(F)c2)cc1OC1CCC1` [Example 305, 2-[1-[4-[3-(cyclobutoxy)-4-methoxy-phenyl]-2,6-difluoro-phenyl]-4-piperidyl]acetic acid], the EC50 was 200 to 2000 nM.

With `O=C(O)CC1CCN(c2c(F)cc(-c3cc(F)cc(OC4CCC4)c3)cc2F)CC1` [Example 306, 2-[1-[4-[3-(cyclobutoxy)-5-fluoro-phenyl]-2,6-difluoro-phenyl]-4-piperidyl]acetic acid], the EC50 was 200 to 2000 nM.

Consider `O=C(O)CC1CCN(c2c(F)cc(-c3cccc(OCC4CC4)n3)cc2Cl)CC1` [Example 307, 2-[1-[2-chloro-4-[6-(cyclopropylmethoxy)-2-pyridyl]-6-fluoro-phenyl]-4-piperidyl]acetic acid], for which the EC50 lay within 200 to 2000 nM.

In the case of `O=C(O)CC1CCN(c2c(F)cc(-c3cccc(OCC4CCC4)n3)cc2F)CC1` [Example 308, 2-[1-[4-[6-(cyclobutylmethoxy)-2-pyridyl]-2,6-difluoro-phenyl]-4-piperidyl]acetic acid], the EC50 fell in the range of 200 to 2000 nM.

`CC(C)(C)Oc1cccc(-c2cc(F)c(N3CCC(CC(=O)O)CC3)c(F)c2)n1` [Example 309, 2-[1-[4-(6-tert-butoxy-2-pyridyl)-2,6-difluoro-phenyl]-4-piperidyl]acetic acid]: the concentration giving a half-maximal response (EC50) was 200 to 2000 nM.

Take `Cc1c(OC2CCC2)cccc1-c1cc(F)c(N2CCC(CC(=O)O)CC2)c(F)c1` [Example 310, 2-[1-[4-[3-(cyclobutoxy)-2-methyl-phenyl]-2,6-difluoro-phenyl]-4-piperidyl]acetic acid]: the EC50 fell in the range of 2000 to 20000 nM.

For `O=C(O)CC1CCN(c2c(F)cc(-c3ccc(Cl)c(OC4CCC4)n3)cc2F)CC1` [Example 311, 2-[1-[4-[5-chloro-6-(cyclobutoxy)-2-pyridyl]-2,6-difluoro-phenyl]-4-piperidyl]acetic acid], the EC50 lay within 200 to 2000 nM.

As to `O=C(O)CC1CCN(c2c(F)cc(-c3cccc(C(=O)C4CC4)n3)cc2F)CC1` [Example 312, 2-[1-[4-[6-(cyclopropanecarbonyl)-2-pyridyl]-2,6-difluoro-phenyl]-4-piperidyl]acetic acid], the EC50 was 200 to 2000 nM.

Turning to `O=C(O)CC1CCN(c2c(F)cc(-c3cccc(COC4CCC4)n3)cc2F)CC1` [Example 313, 2-[1-[4-[6-(cyclobutoxymethyl)-2-pyridyl]-2,6-difluoro-phenyl]-4-piperidyl]acetic acid], the EC50 is over 20000 nM.

`CCOc1cccc(-c2cc(F)c(N3CCC(CC(=O)O)CC3)c(F)c2)n1` [Example 314, 2-[1-[4-(6-ethoxy-2-pyridyl)-2,6-difluoro-phenyl]-4-piperidyl]acetic acid]: the EC50 fell in the range of 200 to 2000 nM.

Consider `O=C(O)CC1CCN(c2c(F)cc(-c3cccc(OCC(F)(F)F)n3)cc2F)CC1` [Example 315, 2-[1-[2,6-difluoro-4-[6-(2,2,2-trifluoroethoxy)-2-pyridyl]phenyl]-4-piperidyl]acetic acid], for which the EC50 lay in the range of 200 to 2000 nM.

Consider `CC(Oc1cccc(-c2cc(F)c(N3CCC(CC(=O)O)CC3)c(F)c2)n1)C(F)(F)F` (stereo not drawn) [Example 316, 2-[1-[2,6-difluoro-4-[6-(2,2,2-trifluoro-1-methyl-ethoxy)-2-pyridyl]phenyl]-4-piperidyl]acetic acid], for which the EC50 lay in the range of 200 to 2000 nM.
